Consider 39 compounds from patent US20240327375A1, “SUBSTITUTED HETEROBICYCLIC DERIVATIVES AS NEGATIVE ALLOSTERIC MODULATORS OF MGLU7 RECEPTOR” (priority 2021, published 2024).

pIC50: −log10 of the molar value. Where a name gives a salt, the structure may show the parent alone. Some results are limits rather than exact numbers.

T1 sequence (Q14831 35-922 isoform Q14831-2 limits assumed): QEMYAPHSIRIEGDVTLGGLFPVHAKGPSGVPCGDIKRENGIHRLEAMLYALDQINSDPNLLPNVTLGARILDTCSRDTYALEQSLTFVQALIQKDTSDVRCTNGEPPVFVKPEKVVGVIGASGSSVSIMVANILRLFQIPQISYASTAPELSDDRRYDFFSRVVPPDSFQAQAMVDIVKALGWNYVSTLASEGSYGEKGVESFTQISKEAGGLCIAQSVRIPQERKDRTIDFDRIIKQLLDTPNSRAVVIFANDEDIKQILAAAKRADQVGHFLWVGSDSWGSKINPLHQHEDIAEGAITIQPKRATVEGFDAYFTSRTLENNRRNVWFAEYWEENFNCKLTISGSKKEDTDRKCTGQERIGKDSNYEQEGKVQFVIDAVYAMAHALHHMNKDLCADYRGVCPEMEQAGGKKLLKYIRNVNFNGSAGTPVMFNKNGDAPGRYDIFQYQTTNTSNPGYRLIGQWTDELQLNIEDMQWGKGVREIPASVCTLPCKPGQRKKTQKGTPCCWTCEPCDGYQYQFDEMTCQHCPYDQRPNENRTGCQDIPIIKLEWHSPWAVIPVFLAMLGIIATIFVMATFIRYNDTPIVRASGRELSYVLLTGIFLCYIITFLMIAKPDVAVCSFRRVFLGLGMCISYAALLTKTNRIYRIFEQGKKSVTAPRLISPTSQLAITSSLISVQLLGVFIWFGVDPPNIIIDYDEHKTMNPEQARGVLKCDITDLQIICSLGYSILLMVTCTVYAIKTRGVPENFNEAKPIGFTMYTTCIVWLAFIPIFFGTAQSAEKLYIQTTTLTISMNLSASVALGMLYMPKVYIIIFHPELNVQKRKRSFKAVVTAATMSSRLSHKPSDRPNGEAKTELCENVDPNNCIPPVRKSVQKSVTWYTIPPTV

One series concerns the target T1, human mGlu7 (Homo sapiens, UniProt Q14831).
T1 construct: expressed in transfected cells
Nature of the series: mGlu7 assay on HEK-expressing human mGlu7: fluorescent cell-based Ca2+ mobilization (FLIPR384), inhibition of EC80 L-AP4 response. As to conditions: HEK-293 cells expressing hmGlu7, EC80 L-AP4 stimulation; mean of at least three independent experiments in duplicate; read-out: Ca^2+ Flux (mean IC50). The text has this:
mGlu7 Assay on HEK-Expressing Human mGlu7
The cDNA encoding the human metabotropic glutamate 7 receptor (hmGlu7), (accession number NM_181874.2, NCBI Nucleotide database browser), was subcloned into an expression vector containing also the hygromycin resistance gene. In parallel, the cDNA encoding a G protein allowing redirection of the activation signal to intracellular calcium flux was subcloned into a different expression vector containing also the Puromycin resistance gene. Transfection of both these vectors into HEK293 cells with PolyFect reagent (Qiagen) according to supplier's protocol, and hygromycin and puromycin treatment allowed selection of antibiotic resistant cells which had integrated stably one or more copies of the plasmids. Positive cellular clones expressing hmGlu7 were identified in a functional assay measuring changes in calcium fluxes in response to glutamate and L-AP4 or known mGlu7 orthosteric antagonists.
HEK-293 cells expressing hmGlu7 were maintained in media containing DMEM, Fetal Bovine Serum (10%), Glutamax™ (2 mM), penicillin (100 units/mL), streptomycin (100 μg/mL), geneticin (100 μg/mL) and hygromycin-B (40 μg/mL) and puromycin (1 μg/mL) at 37° C. with 5% CO2 in a humidified atmosphere.
Fluorescent Cell Based- Ca^+ Mobilization Assay Human mGlu7 HEK-293 cells were plated out 24 hours prior to a fluorescent cell-based calcium mobilization assay using FLIPR^384 assay (Molecular Device, Sunnyvale, CA, USA) in black-walled, clear-bottomed, poly-L-ornithine-coated 384-well plates at a density of 25,000 cells/well in a glutamine/glutamate free DMEM medium containing fetal bovine serum (10%), penicillin (100 units/mL), streptomycin (100 μg/mL) and doxycyline (1 μg/ml) at 37° C. with 5% CO2 in a humidified atmosphere.
On the day of the assay, the medium was aspirated and the cells were loaded with a 3 μM solution of Fluo4-AM (LuBioScience, Lucerne, Switzerland) in 0.03% pluronic acid. After 1 hour at 37° C./5% CO2, the non incorporated dye was removed by washing cell plate with the assay buffer. All assays were performed in a pH 7.4 buffered-solution containing 20 mM HEPES, 143 mM NaCl, 6 mM KCl, 1 mM MgSO4, 1 mM CaCl2, 0.125 mM sulfinpyrazone and 0.1% glucose.
After 10 s of basal fluorescence recording, various concentrations of the compounds of the invention were added to the cells. Changes in fluorescence levels were first monitored for 180 s in order to detect any agonist activity of the compounds. Then the cells were stimulated by an EC80 L-AP4 concentration for an additional 110 s in order to measure inhibiting activities of the compounds of the invention. EC80 L-AP4 concentration is the concentration giving 80% of the maximal glutamate response.
The concentration-response curves of L-AP4 or representative compounds of the present invention were generated using the Prism GraphPad software (Graph Pad Inc, San Diego, USA). The curves were fitted to a four-parameter logistic equation: […]
allowing determination of IC50 values.
The Table 3 below represents the mean IC50 obtained from at least three independent experiments of selected molecules performed in duplicate.
(Calcium assays in cells follow changes in intracellular calcium, usually with a dye or a luminescent sensor.)
By pIC50 is commonly meant −log10 of the IC50, conventionally taken in molar units. For the compound `O=c1c2ccc(-c3cccc(C4CC4)c3)cc2cnn1-c1ccccn1` [1-22, 6-(3-Cyclopropylphenyl)-2-(pyridin-2-yl)phthalazin-1(2H)-one], the pIC50 was 6.00 to 7.00.

Regarding `COc1cccc(-c2ccc3c(=O)n(-c4ncc(N5CCCC(O)C5)cn4)ncc3c2)c1C` (stereo not shown) [1-73], the pIC50 was above 7.00.

Turning to `COc1cccc(-c2ccc3c(=O)n(-c4ncc(NC5CCC(O)CC5)cn4)ncc3c2)c1C` (stereo not shown) [1-74], the negative-log IC50 (pIC50) was above 7.00.

Regarding `COc1cccc(-c2ccc3c(=O)n(-c4ncc(NC5CCCC(O)C5)cn4)ncc3c2)c1C` (stereo not shown) [1-75], the negative logarithm of the IC50 (pIC50) was above 7.00.

Regarding `O=c1c2ccc(-c3cccc(N4CCC4)c3)cc2cnn1-c1ncc(F)cn1` [1-76], the negative logarithm of the IC50 (pIC50) was above 7.00.

For `Cc1c(-c2ccc3c(=O)n(-c4ccccn4)ncc3c2)cccc1N1CCC1` [1-77], the pIC50 is above 7.00.

Turning to `COc1cccc(-c2ccc3c(=O)n(-c4ncc(N5CCSCC5)cn4)ncc3c2)c1C` [1-78], the pIC50 is 6.00 to 7.00.

On to `COCCNc1cnc(-n2ncc3cc(-c4cccc(OC)c4C)ccc3c2=O)nc1` [1-79], for which the negative-log IC50 (pIC50) is above 7.00.

As for `COc1cccc(-c2ccc3c(=O)n(-c4ncc(NCCN(C)C)cn4)ncc3c2)c1C` [1-80], the negative logarithm of the IC50 (pIC50) was above 7.00.

For the compound `Cc1ccc(-c2ccc3c(=O)n(-c4ncc(N5CCOCC5)cn4)ncc3c2)c(C)c1` [1-81], the negative-log IC50 (pIC50) is 6.00 to 7.00.

Turning to `Cc1ccc(-c2ccc3c(=O)n(-c4ncc(N5CCC(O)C5)cn4)ncc3c2)c(C)c1` (stereo not shown) [1-82], the pIC50 is above 7.00.

As to `O=c1c2ccc(-c3cccc(N4CCC4)c3)cc2cnn1-c1ncc(N2CCC(O)C2)cn1` (stereo not shown) [1-83], the pIC50 was 6.00 to 7.00.

For `COc1cccc(-c2ccc3c(=O)n(-c4ncc(N5CC6(COC6)C5)cn4)ncc3c2)c1C` [1-84, 2-(5-(2-Oxa-6-azaspiro[3.3]heptan-6-yl)pyrimidin-2-yl)-6-(3-methoxy-2-methylphenyl)phthalazin-1(2H)-one], the negative logarithm of the IC50 (pIC50) is 6.00 to 7.00.

Regarding `CCOc1cnc(-n2ncc3cc(-c4cccc(OC)c4C)ccc3c2=O)nc1` [1-85], the pIC50 was above 7.00.

Take `COc1cccc(-c2ccc3c(=O)n(-c4ncc(NC5CCC(O)C5)cn4)ncc3c2)c1C` (stereo not shown) [1-87]: the negative logarithm of the IC50 (pIC50) was above 7.00.

Regarding `COc1cccc(-c2ccc3c(=O)n(-c4ncc(NCC(C)(C)O)cn4)ncc3c2)c1C` [1-88], the pIC50 is above 7.00.

In the case of `COc1cccc(-c2ccc3c(=O)n(-c4ncc(Cl)cn4)ncc3c2)c1C` [1-90], the negative logarithm of the IC50 (pIC50) is above 7.00.

On to `COc1cccc(-c2ccc3c(=O)n(-c4ccc(S(C)(=N)=O)cn4)ncc3c2)c1C` (stereo not shown) [1-91], for which the pIC50 is above 7.00.

For the compound `COc1cccc(-c2ccc3c(=O)n(-c4ccc(C(=O)NCC(C)(C)O)cn4)ncc3c2)c1C` [1-92], the pIC50 was above 7.00.

Take `COc1cccc(-c2ccc3c(=O)n(-c4ccc(C(=O)N5CCC(O)C5)cn4)ncc3c2)c1C` (stereo not shown) [1-93]: the pIC50 was above 7.00.

For `COc1cccc(-c2ccc3c(=O)n(-c4ccc(C(=O)NC5CCC(O)C5)cn4)ncc3c2)c1C` (stereo not shown) [1-94], the pIC50 was above 7.00.

For `COc1cccc(-c2ccc3c(=O)n(-c4ncc(NCCN5CCCC5)cn4)ncc3c2)c1C` [1-95], the pIC50 was 6.00 to 7.00.

In the case of `COc1cccc(-c2ccc3c(=O)n(-c4ncc(NCC(C)(C)N(C)C)cn4)ncc3c2)c1C` [1-96], the pIC50 is 6.00 to 7.00.

As for `COc1cccc(-c2ccc3c(=O)n(-c4ncc(NCCn5ccnc5)cn4)ncc3c2)c1C` [1-97], the pIC50 is above 7.00.

With `COc1cccc(-c2ccc3c(=O)n(-c4ccc(NC(=O)[C@@H](N)C(C)C)cn4)ncc3c2)c1C` [1-98, (S)-2-Amino-N-(6-(6-(3-methoxy-2-methylphenyl)-1-oxophthalazin-2(1H)-yl)pyridin-3-yl)-3-methylbutanamide hydrochloride], the negative-log IC50 (pIC50) was 6.00 to 7.00.

Turning to `COc1cccc(-c2ccc3c(=O)n(-c4ccc(NC(=O)[C@@H]5CCCN5)cn4)ncc3c2)c1C` [1-99], the pIC50 is 6.00 to 7.00.

Consider `COc1cccc(-c2ccc3c(=O)n(-c4ncc(NC(C)(C)CO)cn4)ncc3c2)c1C` [1-100], for which the negative logarithm of the IC50 (pIC50) was above 7.00.

With `COc1cccc(-c2ccc3c(=O)n(-c4ncc(N5CCC(N(C)C)C5)cn4)ncc3c2)c1C` (stereo not shown) [1-101], the negative-log IC50 (pIC50) was 6.00 to 7.00.

Regarding `COc1cccc(-c2ccc3c(=O)n(-c4ccc(NC(=O)[C@@H](N)CO)cn4)ncc3c2)c1C` [1-102], the pIC50 was above 7.00.

For the compound `COc1cccc(-c2ccc3c(=O)n(-c4ncc(N5CCCC(N(C)C)C5)cn4)ncc3c2)c1C` (stereo not shown) [1-103], the pIC50 is 6.00 to 7.00.

Take `COc1cccc(-c2ccc3c(=O)n(-c4ncc(NC(C)(C)CN(C)C)cn4)ncc3c2)c1C` [1-104]: the negative logarithm of the IC50 (pIC50) is 6.00 to 7.00.

In the case of `CNCCNc1cnc(-n2ncc3cc(-c4cccc(OC)c4C)ccc3c2=O)nc1` [1-105], the negative logarithm of the IC50 (pIC50) was 6.00 to 7.00.

In the case of `COc1cccc(-c2ccc3c(=O)n(-c4ncc(NCCn5cncn5)cn4)ncc3c2)c1C` [1-106], the pIC50 is above 7.00.

Regarding `COc1cccc(-c2ccc3c(=O)n(-c4ncc(NC5CCN(C)C5)cn4)ncc3c2)c1C` (stereo not shown) [1-107], the pIC50 was above 7.00.

Take `CN1CCCc2c(-c3ccc4c(=O)n(-c5ncccn5)ncc4c3)cccc21` [1-108]: the negative logarithm of the IC50 (pIC50) is above 7.00.

On to `COCC(C)(C)Nc1cnc(-n2ncc3cc(-c4cccc(OC)c4C)ccc3c2=O)nc1` [1-109], for which the pIC50 is above 7.00.

Take `COc1cccc(-c2ccc3c(=O)n(-c4ncc(NCC(C)(C)OC)cn4)ncc3c2)c1C` [1-110, 6-(3-Methoxy-2-methylphenyl)-2-(5-((2-methoxy-2-methylpropyl)amino)pyrimidin-2-yl)phthalazin-1(2H)-one]: the negative-log IC50 (pIC50) was 6.00 to 7.00.

Turning to `COc1cccc(-c2ccc3c(=O)n(-c4ncccn4)ncc3c2)c1F` [1-111], the pIC50 was above 7.00.

Turning to `COc1nccc(-c2ccc3c(=O)n(-c4ncccn4)ncc3c2)c1F` [1-112], the pIC50 is 5.00 to 6.00.

System in the next series: not given
Test: not given
Conditions: not given
The melting point is the temperature of the solid-liquid transition. The compound `O=c1c2ccc(-c3cccc(C4CC4)c3)cc2cnn1-c1ccccn1` [1-22, 6-(3-Cyclopropylphenyl)-2-(pyridin-2-yl)phthalazin-1(2H)-one] showed a melting point of 181 to 184 °C.
